Measurements reported in patent US20020111274A1, “1-alkyl-3-[1-(substituted phenyl) benzotriazol-6-yl] uracils” (BASF Aktiengesellschaft, priority 2000, published 2002).

Assays:
Design in all cases: scale not given here
CASOB Sicklepod [1] = assay: Preemergence herbicidal evaluation, CASOB; assay type: in vivo, Cassia obtusifolia, L.; conditions: preemergence
How it was run: (§1)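 Preemergence soil spray: aqueous acetone, ~0.013–0.800 kg/ha, applied right after sowing (seed/potting-soil mix over ~1 in soil). Greenhouse, routine watering. Scored 4–5 wk post-treatment on a rating scale.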

GALAP Galium [2] = assay: Postemergence herbicidal evaluation, GALAP; assay type: in vivo, Galium aparine; conditions: postemergence spray, rated about two-three weeks after treatment
How it was run: (§2)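 Plants are raised for roughly two weeks, then treated postemergence with compound dispersed in acetone/water (80/20) plus 1.0% seed oil adjuvant, at rates of about 0.006 kg to 0.400 kg per hectare. After greenhouse care, damage is scored two to three weeks later.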

SETVI Foxtail, Green [3] = assay: Postemergence herbicidal evaluation, SETVI; assay type: in vivo, Setaria viridis, (L.) Beau; conditions: postemergence spray, rated about two-three weeks after treatment
How it was run: as §2

GLXMAW Soybean, Williams [4] = assay: Preemergence herbicidal evaluation, GLXMAW; assay type: in vivo, Glycine max, (L.) Merr. cv Williams; conditions: preemergence
How it was run: as §1

ABUTH Velvetleaf [5] = assay: Preemergence herbicidal evaluation, ABUTH; assay type: in vivo, Abutilon theophrasti, Medic.; conditions: preemergence
How it was run: as §1

GALAP Galium [6] = assay: Preemergence herbicidal evaluation, GALAP; assay type: in vivo, Galium aparine; conditions: preemergence
How it was run: as §1

ECHOG Barnyardgrass [7] = assay: Preemergence herbicidal evaluation, ECHOG; assay type: in vivo, Echinochloa crus-galli, (L.) Beau; conditions: preemergence
How it was run: as §1

ZEAMX Corn, Field [8] = assay: Postemergence herbicidal evaluation, ZEAMX; assay type: in vivo, Zea mays, L. (Sammel-Bezeichnung); conditions: postemergence spray, rated about two-three weeks after treatment
How it was run: as §2

[9] = tested on: TRZAWR Wheat, Winter, cv Riband; assay: Preemergence herbicidal evaluation, TRZAWR; assay type: in vivo, Triticum aestivum; conditions: preemergence
How it was run: as §1

GLXMAW Soybean, Williams [10] = assay: Postemergence herbicidal evaluation, GLXMAW; assay type: in vivo, Glycine max, (L.) Merr. cv Williams; conditions: postemergence spray, rated about two-three weeks after treatment
How it was run: as §2

CASOB Sicklepod [11] = assay: Postemergence herbicidal evaluation, CASOB; assay type: in vivo, Cassia obtusifolia, L.; conditions: postemergence spray, rated about two-three weeks after treatment
How it was run: as §2

AMBEL Ragweed, Common [12] = assay: Preemergence herbicidal evaluation, AMBEL; assay type: in vivo, Ambrosia artemisifolia, L.; conditions: preemergence
How it was run: as §1

[13] = tested on: CHEAL Lambsquarters, Common; assay: Postemergence herbicidal evaluation, CHEAL; assay type: in vivo, Chenopodium album, L.; conditions: postemergence spray, rated about two-three weeks after treatment
How it was run: as §2

AMBEL Ragweed, Common [14] = assay: Postemergence herbicidal evaluation, AMBEL; assay type: in vivo, Ambrosia artemisifolia, L.; conditions: postemergence spray, rated about two-three weeks after treatment
How it was run: as §2

[15] = tested on: IPOHE Morningglory, Ivyleaf; assay: Preemergence herbicidal evaluation, IPOHE; assay type: in vivo, Ipomoea hederacea, (L.) Jacq.; conditions: preemergence
How it was run: as §1

[16] = tested on: CHEAL Lambsquarters, Common; assay: Preemergence herbicidal evaluation, CHEAL; assay type: in vivo, Chenopodium album, L.; conditions: preemergence
How it was run: as §1

ECHOG Barnyardgrass [17] = assay: Postemergence herbicidal evaluation, ECHOG; assay type: in vivo, Echinochloa crus-galli, (L.) Beau; conditions: postemergence spray, rated about two-three weeks after treatment
How it was run: as §2

ZEAMX Corn, Field [18] = assay: Preemergence herbicidal evaluation, ZEAMX; assay type: in vivo, Zea mays, L. (Sammel-Bezeichnung); conditions: preemergence
How it was run: as §1

SETVI Foxtail, Green [19] = assay: Preemergence herbicidal evaluation, SETVI; assay type: in vivo, Setaria viridis, (L.) Beau; conditions: preemergence
How it was run: as §1

[20] = tested on: IPOHE Morningglory, Ivyleaf; assay: Postemergence herbicidal evaluation, IPOHE; assay type: in vivo, Ipomoea hederacea, (L.) Jacq.; conditions: postemergence spray, rated about two-three weeks after treatment
How it was run: as §2

ORYSAT Rice, Tebonnet [21] = assay: Postemergence herbicidal evaluation, ORYSAT; assay type: in vivo, Oryza sativa, (L.); conditions: postemergence spray, rated about two-three weeks after treatment
How it was run: as §2

ORYSAT Rice, Tebonnet [22] = assay: Preemergence herbicidal evaluation, ORYSAT; assay type: in vivo, Oryza sativa, (L.); conditions: preemergence
How it was run: as §1

[23] = tested on: TRZAWR Wheat, Winter, cv Riband; assay: Postemergence herbicidal evaluation, TRZAWR; assay type: in vivo, Triticum aestivum; conditions: postemergence spray, rated about two-three weeks after treatment
How it was run: as §2

ABUTH Velvetleaf [24] = assay: Postemergence herbicidal evaluation, ABUTH; assay type: in vivo, Abutilon theophrasti, Medic.; conditions: postemergence spray, rated about two-three weeks after treatment
How it was run: as §2

COC(=O)COc1ccccc1-n1nnc2cc(F)c(-n3c(=O)cc(C(F)(F)F)n(C)c3=O)cc21 [Example 35]
CASOB herbicidal rating (CASOB Sicklepod [1]; rate 0.016 kg/ha): 0.0 | CASOB herbicidal rating (CASOB Sicklepod [1]; rate 0.032 kg/ha): 0.0 | CASOB herbicidal rating (CASOB Sicklepod [1]; rate 0.062 kg/ha): 4.0 | CASOB herbicidal rating (CASOB Sicklepod [1]; rate 0.125 kg/ha): 2.0 | Postemergence herbicidal rating GALAP (GALAP Galium [2]; 0.008 kg/ha): 1.0 | Postemergence herbicidal rating GALAP (GALAP Galium [2]; 0.016 kg/ha): 1.0 | Postemergence herbicidal rating GALAP (GALAP Galium [2]; 0.032 kg/ha): 3.0 | Postemergence herbicidal rating GALAP (GALAP Galium [2]; 0.062 kg/ha): 4.0 | Postemergence herbicidal rating SETVI (SETVI Foxtail, Green [3]; 0.008 kg/ha): 1.0 | Postemergence herbicidal rating SETVI (SETVI Foxtail, Green [3]; 0.016 kg/ha): 9.0 | Postemergence herbicidal rating SETVI (SETVI Foxtail, Green [3]; 0.032 kg/ha): 9.0 | Postemergence herbicidal rating SETVI (SETVI Foxtail, Green [3]; 0.062 kg/ha): 8.0 | GLXMAW herbicidal rating (GLXMAW Soybean, Williams [4]; rate 0.016 kg/ha): 1.0 | GLXMAW herbicidal rating (GLXMAW Soybean, Williams [4]; rate 0.032 kg/ha): 0.0 | GLXMAW herbicidal rating (GLXMAW Soybean, Williams [4]; rate 0.062 kg/ha): 1.5 | GLXMAW herbicidal rating (GLXMAW Soybean, Williams [4]; rate 0.125 kg/ha): 2.5 | ABUTH herbicidal rating (ABUTH Velvetleaf [5]; rate 0.016 kg/ha): 0.0 | ABUTH herbicidal rating (ABUTH Velvetleaf [5]; rate 0.032 kg/ha): 4.0 | ABUTH herbicidal rating (ABUTH Velvetleaf [5]; rate 0.062 kg/ha): 9.0 | ABUTH herbicidal rating (ABUTH Velvetleaf [5]; rate 0.125 kg/ha): 5.5 | GALAP herbicidal rating (GALAP Galium [6]; rate 0.016 kg/ha): 0.0 | GALAP herbicidal rating (GALAP Galium [6]; rate 0.032 kg/ha): 0.0 | GALAP herbicidal rating (GALAP Galium [6]; rate 0.062 kg/ha): 0.0 | GALAP herbicidal rating (GALAP Galium [6]; rate 0.125 kg/ha): 5.0 | ECHCG herbicidal rating (ECHOG Barnyardgrass [7]; rate 0.016 kg/ha): 0.0 | ECHCG herbicidal rating (ECHOG Barnyardgrass [7]; rate 0.032 kg/ha): 0.0 | ECHCG herbicidal rating (ECHOG Barnyardgrass [7]; rate 0.062 kg/ha): 2.0 | ECHCG herbicidal rating (ECHOG Barnyardgrass [7]; rate 0.125 kg/ha): 4.5 | Postemergence herbicidal rating ZEAMX (ZEAMX Corn, Field [8]; 0.008 kg/ha): 5.0 | Postemergence herbicidal rating ZEAMX (ZEAMX Corn, Field [8]; 0.016 kg/ha): 4.5 | Postemergence herbicidal rating ZEAMX (ZEAMX Corn, Field [8]; 0.032 kg/ha): 5.5 | Postemergence herbicidal rating ZEAMX (ZEAMX Corn, Field [8]; 0.062 kg/ha): 7.5 | TRZAWR herbicidal rating ([9]; rate 0.016 kg/ha): 0.0 | TRZAWR herbicidal rating ([9]; rate 0.032 kg/ha): 0.0 | TRZAWR herbicidal rating ([9]; rate 0.062 kg/ha): 1.0 | TRZAWR herbicidal rating ([9]; rate 0.125 kg/ha): 1.0 | Postemergence herbicidal rating GLXMAW (GLXMAW Soybean, Williams [10]; 0.008 kg/ha): 5.0 | Postemergence herbicidal rating GLXMAW (GLXMAW Soybean, Williams [10]; 0.016 kg/ha): 4.5 | Postemergence herbicidal rating GLXMAW (GLXMAW Soybean, Williams [10]; 0.032 kg/ha): 6.0 | Postemergence herbicidal rating GLXMAW (GLXMAW Soybean, Williams [10]; 0.062 kg/ha): 7.5 | Postemergence herbicidal rating CASOB (CASOB Sicklepod [11]; 0.008 kg/ha): 1.0 | Postemergence herbicidal rating CASOB (CASOB Sicklepod [11]; 0.016 kg/ha): 1.0 | Postemergence herbicidal rating CASOB (CASOB Sicklepod [11]; 0.032 kg/ha): 2.0 | Postemergence herbicidal rating CASOB (CASOB Sicklepod [11]; 0.062 kg/ha): 2.0 | AMBEL herbicidal rating (AMBEL Ragweed, Common [12]; rate 0.016 kg/ha): 0.0 | AMBEL herbicidal rating (AMBEL Ragweed, Common [12]; rate 0.032 kg/ha): 0.0 | AMBEL herbicidal rating (AMBEL Ragweed, Common [12]; rate 0.062 kg/ha): 3.5 | AMBEL herbicidal rating (AMBEL Ragweed, Common [12]; rate 0.125 kg/ha): 5.0 | Postemergence herbicidal rating CHEAL ([13]; 0.008 kg/ha): 1.0 | Postemergence herbicidal rating CHEAL ([13]; 0.016 kg/ha): 4.0 | Postemergence herbicidal rating CHEAL ([13]; 0.032 kg/ha): 6.0 | Postemergence herbicidal rating CHEAL ([13]; 0.062 kg/ha): 7.0 | Postemergence herbicidal rating AMBEL (AMBEL Ragweed, Common [14]; 0.008 kg/ha): 4.0 | Postemergence herbicidal rating AMBEL (AMBEL Ragweed, Common [14]; 0.016 kg/ha): 5.0 | Postemergence herbicidal rating AMBEL (AMBEL Ragweed, Common [14]; 0.032 kg/ha): 9.0 | Postemergence herbicidal rating AMBEL (AMBEL Ragweed, Common [14]; 0.062 kg/ha): 9.0 | IPOHE herbicidal rating ([15]; rate 0.016 kg/ha): 0.0 | IPOHE herbicidal rating ([15]; rate 0.032 kg/ha): 4.5 | IPOHE herbicidal rating ([15]; rate 0.062 kg/ha): 5.0 | IPOHE herbicidal rating ([15]; rate 0.125 kg/ha): 9.0 | CHEAL herbicidal rating ([16]; rate 0.016 kg/ha): 0.0 | CHEAL herbicidal rating ([16]; rate 0.032 kg/ha): 9.0 | CHEAL herbicidal rating ([16]; rate 0.062 kg/ha): 9.0 | CHEAL herbicidal rating ([16]; rate 0.125 kg/ha): 9.0 | Postemergence herbicidal rating ECHCG (ECHOG Barnyardgrass [17]; 0.008 kg/ha): 2.0 | Postemergence herbicidal rating ECHCG (ECHOG Barnyardgrass [17]; 0.016 kg/ha): 4.0 | Postemergence herbicidal rating ECHCG (ECHOG Barnyardgrass [17]; 0.032 kg/ha): 7.0 | Postemergence herbicidal rating ECHCG (ECHOG Barnyardgrass [17]; 0.062 kg/ha): 9.0 | ZEAMX herbicidal rating (ZEAMX Corn, Field [18]; rate 0.016 kg/ha): 0.0 | ZEAMX herbicidal rating (ZEAMX Corn, Field [18]; rate 0.032 kg/ha): 0.0 | ZEAMX herbicidal rating (ZEAMX Corn, Field [18]; rate 0.062 kg/ha): 1.0 | ZEAMX herbicidal rating (ZEAMX Corn, Field [18]; rate 0.125 kg/ha): 3.0 | SETVI herbicidal rating (SETVI Foxtail, Green [19]; rate 0.016 kg/ha): 0.0 | SETVI herbicidal rating (SETVI Foxtail, Green [19]; rate 0.032 kg/ha): 1.5 | SETVI herbicidal rating (SETVI Foxtail, Green [19]; rate 0.062 kg/ha): 6.5 | SETVI herbicidal rating (SETVI Foxtail, Green [19]; rate 0.125 kg/ha): 9.0 | Postemergence herbicidal rating IPOHE ([20]; 0.008 kg/ha): 9.0 | Postemergence herbicidal rating IPOHE ([20]; 0.016 kg/ha): 4.0 | Postemergence herbicidal rating IPOHE ([20]; 0.032 kg/ha): 9.0 | Postemergence herbicidal rating IPOHE ([20]; 0.062 kg/ha): 9.0 | Postemergence herbicidal rating ORYSAT (ORYSAT Rice, Tebonnet [21]; 0.008 kg/ha): 3.0 | Postemergence herbicidal rating ORYSAT (ORYSAT Rice, Tebonnet [21]; 0.016 kg/ha): 3.5 | Postemergence herbicidal rating ORYSAT (ORYSAT Rice, Tebonnet [21]; 0.032 kg/ha): 6.0 | Postemergence herbicidal rating ORYSAT (ORYSAT Rice, Tebonnet [21]; 0.062 kg/ha): 7.0 | ORYSAT herbicidal rating (ORYSAT Rice, Tebonnet [22]; rate 0.016 kg/ha): 0.0 | ORYSAT herbicidal rating (ORYSAT Rice, Tebonnet [22]; rate 0.032 kg/ha): 0.0 | ORYSAT herbicidal rating (ORYSAT Rice, Tebonnet [22]; rate 0.062 kg/ha): 3.5 | ORYSAT herbicidal rating (ORYSAT Rice, Tebonnet [22]; rate 0.125 kg/ha): 6.0 | Postemergence herbicidal rating TRZAWR ([23]; 0.008 kg/ha): 3.5 | Postemergence herbicidal rating TRZAWR ([23]; 0.016 kg/ha): 3.0 | Postemergence herbicidal rating TRZAWR ([23]; 0.032 kg/ha): 5.5 | Postemergence herbicidal rating TRZAWR ([23]; 0.062 kg/ha): 7.0 | Postemergence herbicidal rating ABUTH (ABUTH Velvetleaf [24]; 0.008 kg/ha): 5.0 | Postemergence herbicidal rating ABUTH (ABUTH Velvetleaf [24]; 0.016 kg/ha): 5.0 | Postemergence herbicidal rating ABUTH (ABUTH Velvetleaf [24]; 0.032 kg/ha): 9.0 | Postemergence herbicidal rating ABUTH (ABUTH Velvetleaf [24]; 0.062 kg/ha): 9.0
